Measured values from US20200253959A1, “COMPOUNDS AND PHARMACEUTICAL COMPOSITIONS THEREOF FOR USE IN THE TREATMENT OF FIBROTIC DISEASES” (Galapagos NV, priority 2017, published 2020).
Where “and” joins values, the source holds several entries; their conditions need not be identical. Equal entries are not always repeated.

What was measured:
LPA 18:2 [1] = assay: Human plasma assay for the reduction of LPA 18:2; assay type: biochemical
LPA 18:2 [2] = assay: LPA 18:2 levels in blood samples of IPF subjects; assay type: in vivo, human; details: for LPA 18:2 % reduction: IPF patients, plasma
Procedure: (§1) Blood samples of 14 mL will be collected predose by venipuncture (or indwelling catheter for pharmacokinetic sampling days) in the arm at the time points indicated in the study flow chart and according to sequence of study assessments.
From the blood samples, the LPA 18:2 levels are determined using laboratory techniques.

subjects with IPF [3] = assay: Clinical study in IPF subjects: pulmonary function by spirometry (FVC); assay type: in vivo, human
Procedure: The study is a randomized, double-blind, parallel group, placebo-controlled, multicenter study to evaluate the test compound in subjects with IPF.
At baseline, after the subject's eligibility for the study has been confirmed, subjects are randomized in a 3:1 ratio test compound (600 mg q.d.) : matching placebo administered for 12 weeks.
Subjects receive 600 mg of test compound (3 capsules of 200 mg) or placebo q.d. for 12 weeks administered in the morning.
Pulmonary function will be assessed through spirometry both performed at the study center (at screening, baseline, and thereafter post dose at the time points indicated in the study schedule and according to sequence of study assessments) and at home (at baseline and thereafter post dose; on a daily basis in the morning). Specific instructions on how to perform the spirometry at home are provided in a separate spirometry user manual.
The following parameters will be measured as part of the spirometry assessment: • FEV1 (L) and percent predicted FEV1 • FVC (L) and percent predicted FVC • FEV1/FVC ratio • Forced expiratory flow (FEF) between 25 and 75% of exhaled volume (FEF25-75)

subjects with IPF [4] = assay: Functional respiratory imaging (FRI) from HRCT in IPF subjects; assay type: in vivo, human
From the text: HRCT will be performed (post dose if applicable) at the time points indicated in the study chart (see 1.4 above) and according to sequence of study assessments. HRCT scans will be used to generate FRI measurements allowing for an evaluation of regional IPF disease manifestation and disease progression. In case the subject is on bronchodilators, he/she can use the bronchodilator after the spirometry but prior to HRCT for FRI parameters.
At each computed tomography (CT) assessment an inspiratory and an expiratory scan will be taken. During the baseline visit an additional scan of the upper airway will be taken. The inspiratory and an expiratory scan will expose the subject to a total radiation dose of approximately 4-5 mSv per visit, including the initial CT localizer radiograph (topogram scout). The upper airway scan will expose a subject to approximately 1 mSv. A radiation dose of approximately 2-2.5 mSv is equivalent to approximately 1 year of background radiation (based on the assumption of an average “effective dose” from natural background radiation is of 3.1 mSv per year in the US and 2.4 mSv per year in Europe. (USNRC, 2014; WNA, 2015)
All CT images will be imported into Mimics, a commercial, medical image processing software package (Materialise, Leuven, Belgium, Food and Drug Administration, K073468; CE certificate, BE 05/1191 CE01) for analysis. This software package converts the HRCT images into patient specific, 3-dimensional computer models of the lung lobes, the airway lumen and wall, and the vascular tree. The airway and vascular tree are evaluated at functional residual capacity (FRC) and total lung capacity (TLC) level and can be segmented down to bronchi/vessels with a diameter of around 1-2 mm. Beyond this point the HRCT resolution is insufficient to distinguish alveolar and intraluminal air, or blood vessel tissue and surrounding lung tissues. A typical airway model includes 5-10 generations, depending mainly on the disease state of the individual patient. Afterwards the airway lumen models will be processed further to obtain a model that is suitable for flow calculations.
The following FRI parameters based on low-dose inspiratory-expiratory multi-slice CT images and computational fluid dynamics flow simulations will be evaluated. • lobar volumes at FRC and TLC • airway volumes at FRC and TLC • airway resistance • internal lobar airflow distribution • low attenuation or emphysema score at TLC • blood vessel density or fibrosis score at TLC • airway wall thickness at TLC • air trapping at FRC • mass of deposited particles per defined airway section

[5] = Test compound plasma levels and PK parameters in IPF patients (LC-MS/MS, non-compartmental analysis); assay type: in vivo, human; details: for Compound I concentration: listed as Compound I
Procedure: The test compound plasma levels were determined by LC-MS/MS and PK parameters by non-compartmental analysis using Phoenix WinNonlin.

LPA C8:2 = assay: Plasma LPA reduction in healthy volunteers (PK/PD correlation in plasma); assay type: in vivo, human
From the text: (§2) A first trial is a randomized, double-blind, placebo-controlled, single center study evaluating single ascending doses (SAD) and multiple ascending (MAD) doses of compound 1 in healthy male volunteers (see Van der Aar E M, 2016).

[6] = Compound plasma concentration in healthy volunteers (PK/PD correlation in plasma); assay type: in vivo, human; details: listed as Compound I
From the text: as §2

surfactant protein A = assay: Biomarker analysis surfactant protein A in blood of IPF subjects; assay type: in vivo, human; details: following 12 weeks of treatment
Procedure: as §1
The following exploratory biomarkers are evaluated in blood samples: • KL-6/Muc1 • surfactant protein A and D • CCL18 • ATX • MMP1, MMP7 • markers of extracellular matrix (ECM) turnover (neoepitope assay)

SMILES: CCc1nc2c(C)cc(N3CCN(CC(=O)N4CC(O)C4)CC3)cn2c1N(C)c1nc(-c2ccc(F)cc2)c(C#N)s1 [Compound 1]
- IC50 in human plasma assay for the reduction of LPA 18:2 (LPA 18:2 [1]): 143 ng/mL
- LPA18:2 percentage reduction (LPA 18:2 [2]; 600 mg q.d., Week 4, positive value = reduction): 52.48%
- LPA18:2 percentage reduction (LPA 18:2 [2]; 600 mg q.d., Week 12, positive value = reduction): 67.48%
- LPA18:2 percentage reduction (LPA 18:2 [2]; Follow up visit, negative value = increase in LPA levels): −34.36%
- LPA 18:2 % reduction (LPA 18:2 [2]; Week 4 - 0 h post-dose (second line so labelled, r10)): 88%
- LPA 18:2 % reduction (LPA 18:2 [2]; Week 4 - 0 h post-dose): 52%
- LPA 18:2 % reduction (LPA 18:2 [2]; Week 12 - 0 h post-dose): 68%
- LPA 18:2 levels after stopping the administration (in words) (LPA 18:2 [2]; after stopping administration): levels returning to or above baseline levels
- LPA 18:2 levels on administration (in words) (LPA 18:2 [2]; during administration, 600 mg q.d.): stable decrease in LPA 18:2 levels
- FVC CFB (subjects with IPF [3]; 600 mg q.d., Week 4, IPF subjects): +116 mL
- FVC CFB (subjects with IPF [3]; 600 mg q.d., Week 8, IPF subjects): +15 mL
- FVC CFB (subjects with IPF [3]; 600 mg q.d., Week 12, IPF subjects, mean from baseline, listed as Cpd I): +8 mL
- FVC CFB (subjects with IPF [3]; 600 mg q.d., Week 12, IPF subjects, mean from baseline, listed as compound according to Formula I): 8 mL
- FVC CFB (subjects with IPF [3]; Follow up (2 weeks after last administration of 600 mg q.d.)): -55 mL
- Specific airway resistance (subjects with IPF [4]; Baseline, Compound 1 group): 0.11 kPa/sec
- Specific airway volume (subjects with IPF [4]; Baseline, Compound 1 group): 3.92 mL/L
- Specific airway resistance (subjects with IPF [4]; Week 12, 600 mg q.d.): 0.12 kPa/sec
- Specific airway volume (subjects with IPF [4]; Week 12, 600 mg q.d.): 3.80 mL/L
- airway resistance (in words) (subjects with IPF [4]; baseline vs Week 12): stabilization
- airway volume (in words) (subjects with IPF [4]; baseline vs Week 12): stabilization
- Compound I concentration ([5]; Week 4 - 0 h post-dose (second line so labelled, r10), plasma): 6557 nM and 3860 ng/mL
- Compound I concentration ([5]; Week 4 - 0 h post-dose, plasma): 1020 nM and 604 ng/mL
- Compound I concentration ([5]; Week 12 - 0 h post-dose, plasma): 1698 nM and 1000 ng/mL
- AUC ([5]; human, plasma, oral, week 4, 600 mg q.d., read-out: mean area under the plasma concentration time curve for the dosing interval of 24 hours (AUC0-τ)): 55600 ng·h/mL
- Cmax ([5]; human, plasma, oral, week 4, 600 mg q.d., read-out: median maximum observed plasma concentration (Cmax)): 6060 ng/mL
- Tmax ([5]; human, plasma, oral, week 4, 600 mg q.d., read-out: median tmax): 4 h
- trough plasma concentration (Cτ) ([5]; week 4, 600 mg q.d.): 604 ng/mL
- LPA C8:2 % reduction (LPA C8:2; D 14 - 6 h post-dose): 83%
- LPA C8:2 % reduction (LPA C8:2; D 14 - 24 h post-dose): 66%
- Compound I concentration ([6]; D 14 - 6 h post-dose): 6506 nM and 3830 ng/mL
- Compound I concentration ([6]; D 14 - 24 h post-dose): 421 nM and 249 ng/mL
- surfactant protein A in blood (in words) (surfactant protein A): statistically significant increase
